According to US11384055B2 (BIOMARIN PHARMACEUTICAL INC., priority 2017, dated 2022):

target: T1, Human GO (Homo sapiens, UniProt Q9UJM8); experiment: GO enzymatic assay (coupled fluorescence/HRP assay, glycolate substrate); type: biochemical; settings: Table 2; read-out: Range (range of IC50 values calculated from the enzymatic assays)
T1 construct: purchased Novus Biologicals NBP1-72412
T1 sequence (Q9UJM8 1-370): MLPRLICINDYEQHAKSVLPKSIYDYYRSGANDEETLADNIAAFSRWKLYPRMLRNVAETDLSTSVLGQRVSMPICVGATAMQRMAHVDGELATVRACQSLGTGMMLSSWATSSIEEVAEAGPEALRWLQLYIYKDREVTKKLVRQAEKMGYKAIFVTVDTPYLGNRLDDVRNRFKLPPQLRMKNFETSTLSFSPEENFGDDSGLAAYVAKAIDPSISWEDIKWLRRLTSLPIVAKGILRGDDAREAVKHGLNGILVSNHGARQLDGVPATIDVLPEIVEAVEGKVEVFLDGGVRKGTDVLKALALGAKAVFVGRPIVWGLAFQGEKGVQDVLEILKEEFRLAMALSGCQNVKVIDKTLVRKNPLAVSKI
How it was run: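 Human GO incubated with glycolate substrate in 50 mM potassium phosphate, pH 7, with varying inhibitor concentrations. Activity read by coupled HRP fluorescence. IC50 taken from variable-slope sigmoidal dose-response fits of percent inhibition relative to DMSO control.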

| Structure (SMILES) | IC50 |
| --- | --- |
| O=C(O)c1[nH]nnc1SCc1ccc(Cl)c(Cl)c1 [Compound 176, 4-((3,4-dichlorobenzyl)thio)-1H-1,2,3-triazole-5-carboxylic acid] | < 0.1 µM |
| O=C(O)c1[nH]nnc1SCc1ccc(-c2ccc(OC(F)(F)F)cc2)cc1 [Compound 177] | < 0.1 µM |
| O=C(O)c1[nH]nnc1CNc1ccc2cc(Cl)ccc2c1 [Compound 178, 4-(((6-chloronaphthalen-2-yl)amino)methyl)-1H-1,2,3-triazole-5-carboxylic acid 2,2,2-trifluoroacetate] | < 0.1 µM |
| CN(Cc1nn[nH]c1C(=O)O)c1ccc(Cl)c(Cl)c1 [Compound 179, 4-(((3,4-dichlorophenyl)(methyl)amino)methyl)-1H-1,2,3-triazole-5-carboxylic acid 2,2,2-trifluoroacetate] | < 0.1 µM |
| CN(Cc1nn[nH]c1C(=O)O)c1ccc2cc(Cl)ccc2c1 [Compound 180, 4-(((6-chloronaphthalen-2-yl)(methyl)amino)methyl)-1H-1,2,3-triazole-5-carboxylic acid 2,2,2-trifluoroacetate] | < 0.1 µM |
| O=C(O)c1[nH]nnc1Nc1ccc(-c2ccc(Cl)cc2)c(Cl)c1 [Compound 181, 4-((2,4′-dichloro-[1,1′-biphenyl]-4-yl)amino)-1H-1,2,3-triazole-5-carboxylic acid] | < 0.1 µM |
| O=C(O)c1[nH]nnc1NCc1ccc2cc(Cl)ccc2c1 [Compound 182, 4-(((6-chloronaphthalen-2-yl)methyl)amino)-1H-1,2,3-triazole-5-carboxylic acid] | 0.1 to 1 µM |
| O=C(O)c1[nH]nnc1Nc1ccc(-c2ccc(C(F)(F)F)cc2)cc1 [Compound 183, 4-((4′-(trifluoromethyl)-[1,1′-biphenyl]-4-yl)amino)-1H-1,2,3-triazole-5-carboxylic acid] | < 0.1 µM |
| CCN(Cc1nn[nH]c1C(=O)O)c1ccc(Cl)c(Cl)c1 [Compound 185, 4-(((3,4-dichlorophenyl)(ethyl)amino)methyl)-1H-1,2,3-triazole-5-carboxylic acid] | 0.1 to 1 µM |
| O=C(O)c1[nH]nnc1Nc1cnc2cc(Cl)ccc2c1 [Compound 186, 4-((7-chloroquinolin-3-yl)amino)-1H-1,2,3-triazole-5-carboxylic acid] | 1 to 10 µM |
| CCN(Cc1nn[nH]c1C(=O)O)c1ccc2cc(Cl)ccc2c1 [Compound 187, 4-(((6-chloronaphthalen-2-yl)(ethyl)amino)methyl)-1H-1,2,3-triazole-5-carboxylic acid] | 0.1 to 1 µM |
| O=C(O)c1[nH]nnc1CN1CCCc2cc(Cl)ccc21 [Compound 188, 4-((6-chloro-3,4-dihydroquinolin-1(211)-yl)methyl)-1H-1,2,3-triazole-5-carboxylic acid] | 1 to 10 µM |
| CCN(Cc1nn[nH]c1C(=O)O)c1ccc(-c2ccc(OC(F)(F)F)cc2)cc1 [Compound 189, 4-((ethyl(4′-(trifluoromethoxy)-[1,1′-biphenyl]-4-yl)amino)methyl)-1H-1,2,3-triazole-5-carboxylic acid 2,2,2-trifluoroacetate] | 0.1 to 1 µM |
| O=C(O)c1[nH]nnc1NC1Cc2cc(Cl)c(Cl)cc2C1 [Compound 190, 4-((5,6-dichloro-2,3-dihydro-1H-inden-2-yl)amino)-1H-1,2,3-triazole-5-carboxylic acid 2,2,2-trifluoroacetate] | 0.1 to 1 µM |
| O=C(O)c1[nH]nnc1CN(Cc1ccccc1)c1ccc(C2CCCCC2)cc1 [Compound 194, 4-((benzyl(4-cyclohexylphenyl)amino)methyl)-1H-1,2,3-triazole-5-carboxylic acid] | 1 to 10 µM |
| O=C(O)c1[nH]nnc1CN(Cc1ccc(OC(F)(F)F)cc1)c1ccc(Cl)cc1 [Compound 195, 4-(((4-chlorophenyl)(4-(trifluoromethoxy)benzyl)amino)methyl)-1H-1,2,3-triazole-5-carboxylic acid] | 0.1 to 1 µM |
| O=C(O)c1[nH]nnc1CN(Cc1ccccc1)c1ccc(-c2ccc(OC(F)(F)F)cc2)cc1 [Compound 196, 4-((benzyl(4′-(trifluoromethoxy)-[1,1′-biphenyl]-4-yl)amino)methyl)-1H-1,2,3-triazole-5-carboxylic acid 2,2,2-trifluoroacetate] | 0.1 to 1 µM |
| O=C(O)c1[nH]nnc1C(F)(F)c1ccc(-c2ccc(Cl)cc2)c(Cl)c1 [Compound 197, 4-((2,4′-dichloro-[1,1′-biphenyl]-4-yl)difluoromethyl)-1H-1,2,3-triazole-5-carboxylic acid 2,2,2-trifluoroacetate] | < 0.1 µM |
| O=C(O)c1[nH]nnc1C(F)(F)c1ccc(-c2ccc(OC(F)(F)F)cc2)cc1 [Compound 198, 4-(difluoro(4′-(trifluoromethoxy)-[1,1′-biphenyl]-4-yl)methyl)-1H-1,2,3-triazole-5-carboxylic acid 2,2,2-trifluoroacetate] | < 0.1 µM |
| O=C(O)c1[nH]nnc1C(F)(F)c1ccc2cc(Cl)ccc2c1 [Compound 199, 4-((6-chloronaphthalen-2-yl)difluoromethyl)-1H-1,2,3-triazole-5-carboxylic acid] | < 0.1 µM |
| O=C(O)c1[nH]nnc1C(F)(F)c1ccc(-c2ccc(Cl)cc2)cc1 [Compound 200, 4-((4′-chloro-[1,1′-biphenyl]-4-yl)difluoromethyl)-1H-1,2,3-triazole-5-carboxylic acid 2,2,2-trifluoroacetate] | < 0.1 µM |
| O=C(O)c1[nH]nnc1C(F)(F)c1ccc(-c2ccc(Cl)c(Cl)c2)cc1 [Compound 201, 4-((3′,4′-dichloro-[1,1′-biphenyl]-4-yl)difluoromethyl)-1H-1,2,3-triazole-5-carboxylic acid 2,2,2-trifluoroacetate] | < 0.1 µM |
| O=C(O)c1[nH]nnc1-c1ccc(-c2ccc(Cl)cc2)c(OC(F)(F)F)c1 [Compound 203, 4-(4′-chloro-2-(trifluoromethoxy)-[1,1′-biphenyl]-4-yl)-1H-1,2,3-triazole-5-carboxylic acid] | < 0.1 µM |
| CC(C)C(=O)OCOC(=O)c1[nH]nnc1-c1ccc2cc(Cl)ccc2n1 [Compound 204, (isobutyryloxy)methyl 4-(6-chloroquinolin-2-yl)-1H-1,2,3-triazole-5-carboxylate] | 1 to 10 µM |
| CC(C)N1CCCc2cc(-c3nn[nH]c3C(=O)O)ccc21 [Compound 206, 4-(1-isopropyl-1,2,3,4-tetrahydroquinolin-6-yl)-1H-1,2,3-triazole-5-carboxylic acid 2,2,2-trifluoroacetate] | 1 to 10 µM |
| O=C(O)c1[nH]nnc1-c1cc(Cl)c(Cl)cn1 [Compound 207, 4-(4,5-dichloropyridin-2-yl)-1H-1,2,3-triazole-5-carboxylic acid] | 0.1 to 1 µM |

The remaining lines, values ahead:

| IC50 | Structure (SMILES) |
| --- | --- |
| 0.1 to 1 µM | O=C(O)c1[nH]nnc1-c1ccc(Cl)cn1 [Compound 208, 4-(5-chloropyridin-2-yl)-1H-1,2,3-triazole-5-carboxylic acid 2,2,2-trifluoroacetate] |
| 1 to 10 µM | CC(=O)NCCOc1ccc(-c2nn[nH]c2C(=O)O)cc1 [Compound 209, 4-(4-(2-acetamidoethoxy)phenyl)-1H-1,2,3-triazole-5-carboxylic acid] |
| 0.1 to 1 µM | O=C(O)c1[nH]nnc1-c1cc2ccc(F)cc2cn1 [Compound 210, 4-(7-fluoroisoquinolin-3-yl)-1H-1,2,3-triazole-5-carboxylic acid 2,2,2-trifluoroacetate] |
| 1 to 10 µM | O=C(O)c1[nH]nnc1-c1cc2cc(OC(F)(F)F)ccc2cn1 [Compound 211, 4-(6-(trifluoromethoxy)isoquinolin-3-yl)-1H-1,2,3-triazole-carboxylic acid] |
| 1 to 10 µM | O=C(O)c1[nH]nnc1-c1ccc2c(n1)CCCC2 [Compound 212, 4-(5,6,7,8-tetrahydroquinolin-2-yl)-1H-1,2,3-triazole-5-carboxylic acid] |
| 1 to 10 µM | O=C(O)c1[nH]nnc1-c1cc2cc(F)ccc2cn1 [Compound 213, 4-(6-fluoroisoquinolin-3-yl)-1H-1,2,3-triazole-5-carboxylic acid 2,2,2-trifluoroacetate] |
| 0.1 to 1 µM | O=C(O)c1[nH]nnc1-c1cc2ccc(OC(F)(F)F)cc2cn1 [Compound 214, 4-(7-(trifluoromethoxy)isoquinolin-3-yl)-1H-1,2,3-triazole-5-carboxylic acid] |
| 0.1 to 1 µM | O=C(O)c1[nH]nnc1-c1cc2ccc(C(F)(F)F)cc2cn1 [Compound 215, 4-(7-(trifluoromethyl)isoquinolin-3-yl)-1H-1,2,3-triazole-5-carboxylic acid] |
| < 0.1 µM | O=C(O)c1[nH]nnc1-c1cnc2cc(Cl)ccc2c1 [Compound 216, 4-(7-chloroquinolin-3-yl)-1H-1,2,3-triazole-5-carboxylic acid 2,2,2-trifluoroacetate] |
| < 0.1 µM | O=C(O)c1[nH]nnc1-c1cc(Cl)cc(OCC2CC2)c1 [Compound 217, 4-(3-chloro-5-(cyclopropylmethoxy)phenyl)-1H-1,2,3-triazole-5-carboxylic acid 2,2,2-trifluoroacetate] |
| 0.1 to 1 µM | O=C(O)c1[nH]nnc1-c1ccc(Cl)c(OCC2CC2)c1 [Compound 218, 4-(4-chloro-3-(cyclopropylmethoxy)phenyl)-1H-1,2,3-triazole-5-carboxylic acid] |
| 1 to 10 µM | O=C(O)c1[nH]nnc1-c1cc(OCC2CC2)ccc1Cl [Compound 219, 4-(2-chloro-5-(cyclopropylmethoxy)phenyl)-1H-1,2,3-triazole-5-carboxylic acid] |
| < 0.1 µM | O=C(O)c1[nH]nnc1Oc1ccc(-c2cccc(N3CCCCC3)c2)cc1 [Compound 220, 4-((3′-(piperidin-1-yl)-[1,1′-biphenyl]-4-yl)oxy)-1H-1,2,3-triazole-5-carboxylic acid 2,2,2-trifluoroacetate] |
